The text below walks through data of BindingDB's records for patent US20250313563 (The Broad Institute, 2025).

The target of assay [1] is Glycogen synthase kinase-3 alpha (Homo sapiens, UniProt P49840). Kind of assay: TR-FRET Assay. The gist of the method: (§1)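 Enzyme and test compound were first incubated together for 30 minutes in assay buffer. The kinase reaction followed and was stopped with EDTA. The pSer641 signal was read by time-resolved FRET.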
Background: In TR-FRET formats the signal depends on donor and acceptor labels being close together.

Assay [2] has as its target Glycogen synthase kinase-3 beta (Homo sapiens, UniProt P49841). Briefly: TR-FRET Assay. The gist of the method: as §1

Each structure is given as a SMILES string. “And” between values parts separate entries of the source, which are not always exact repeats. Identical values can stand only once.

Sequence of Glycogen synthase kinase-3 alpha (P49840 whole entry): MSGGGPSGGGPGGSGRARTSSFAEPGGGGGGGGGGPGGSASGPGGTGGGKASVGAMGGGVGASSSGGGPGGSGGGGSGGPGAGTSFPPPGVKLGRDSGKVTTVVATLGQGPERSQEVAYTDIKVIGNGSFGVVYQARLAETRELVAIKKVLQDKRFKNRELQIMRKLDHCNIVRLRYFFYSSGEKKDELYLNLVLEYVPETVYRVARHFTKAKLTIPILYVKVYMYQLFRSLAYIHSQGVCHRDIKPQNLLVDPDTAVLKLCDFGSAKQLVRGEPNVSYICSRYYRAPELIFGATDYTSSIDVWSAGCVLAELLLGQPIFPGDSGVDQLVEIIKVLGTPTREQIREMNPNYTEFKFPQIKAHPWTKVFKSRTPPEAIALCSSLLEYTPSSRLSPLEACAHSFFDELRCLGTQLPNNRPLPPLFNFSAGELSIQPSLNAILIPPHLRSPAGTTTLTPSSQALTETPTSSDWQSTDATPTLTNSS
Sequence of Glycogen synthase kinase-3 beta (P49841 whole entry): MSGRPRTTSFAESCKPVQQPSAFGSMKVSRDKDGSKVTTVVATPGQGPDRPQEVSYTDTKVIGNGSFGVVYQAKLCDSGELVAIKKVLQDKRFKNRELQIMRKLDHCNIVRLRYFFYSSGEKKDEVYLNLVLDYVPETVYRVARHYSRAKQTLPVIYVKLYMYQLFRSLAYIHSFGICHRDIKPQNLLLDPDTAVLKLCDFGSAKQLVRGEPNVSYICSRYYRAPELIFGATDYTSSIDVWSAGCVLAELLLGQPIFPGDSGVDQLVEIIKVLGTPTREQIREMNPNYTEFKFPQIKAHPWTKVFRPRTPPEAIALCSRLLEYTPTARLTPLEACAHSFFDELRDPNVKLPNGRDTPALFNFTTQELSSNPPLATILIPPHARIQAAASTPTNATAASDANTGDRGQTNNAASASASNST

A word on the IC50: it is the concentration that inhibits the measured activity by half. Low values mean greater potency, high ones weaker potency. Regarding `CC[C@]1(c2cccc(N(C)c3ncccn3)c2)C2=CN=NC2NC2=C1C(=O)NC(C)(C)C2` (some centres not stated) [US20250313563, Compound 947825], the half-maximal inhibitory concentration (IC50) was 0.1 to 1 µM in assay [1] and above 5 µM in assay [2].

`CC[C@@]1(c2cccc(-c3cc(C)ncc3C)c2)C2=C(CC(C)(C)CC2=O)NC2N=NC(C)=C21` (some centres not stated) [US20250313563, Compound 913019]: the IC50 is 0.1 to 1 µM in assay [1] and 1 to 5 µM in assay [2].

As to `CC1(C)CC(=O)C2=C(NC3=C(CN=N3)C23CCN(S(=O)(=O)c2ccccc2C(F)F)CC3)[C@@H]1F` [US20250313563, Compound 951846], the half-inhibitory concentration (IC50) was below 0.1 µM in assay [1] and 0.1 to 1 µM in assay [2].

`CC[C@]1(c2cccc(-c3ccnc(C)c3)c2)C2=C(N=NC2)NC2=C1C(=O)C(C)(C)C2` [US20250313563, Compound 950282]: the IC50 in assay [1] was below 0.1 µM; in assay [2], 0.1 to 1 µM.

In the case of `CC(=O)N1C[C@]2(C[C@]3(CO2)C2=C(N=NC2)NC2=C3C(=O)CC(C)(C)C2)[C@H]1C` [US20250313563, Compound 948439], the IC50 in assay [1] and in assay [2] was below 0.1 µM in each case.

With `C[C@H]1C[C@]2(CCO1)C1=C(N=NC1)NC1=C2C(=O)CC(C)(C)C1` [US20250313563, Compound 899560], the half-inhibitory concentration (IC50) fell in the range of 0.1 to 1 µM in assay [1] and 1 to 5 µM in assay [2].

On to `CCC1(c2cccc(-c3cncn3C(C)C)c2)C2=CN=NC2NC2=C1C(=O)CC(C)(C)C2` (configuration not stated) [US20250313563, Compound 944026], for which the IC50 in assay [1] and in assay [2] was below 0.1 µM in each case.

For the compound `CC1(C)CC(=O)C2=C(C1)NC1=C(CN=N1)C21CC(C)(C)C1` [US20250313563, Compound 883864], the IC50 was below 0.1 µM in assay [1] and 0.1 to 1 µM in assay [2].

Turning to `CCC1(c2cccc(C(F)(F)F)c2)C2=CN=NC2NC2=C1C(=O)N(c1ncn(C)c1C)CC2` (configuration not stated) [US20250313563, Compound 951598], the results for the IC50 in assay [1] and in assay [2] were 0.1 to 1 µM and above 5 µM, respectively.

For the compound `CC[C@@]1(c2cccc(S(C)(=O)=O)c2)C2=C(CC(C)(C)NC2=O)NC2N=NC(C(F)(F)F)=C21` (some centres not stated) [US20250313563, Compound 948422], the half-inhibitory concentration (IC50) in assay [1] and in assay [2] was 0.1 to 1 µM in each case.

Regarding `CCC1(c2cccc(C)c2)C2=CN=NC2NC2=C1C(=O)CC(C)(C)C2` (configuration not stated) [US20250313563, Compound 785738], the IC50 in assay [1] was below 0.1 µM; in assay [2], 0.1 to 1 µM.

In the case of `CC[C@@]1(c2cccc(-c3ccnc(C)c3)c2)C2=C(N=NC2)NC2=C1C(=O)[C@H]1CC[C@@H]2C1` [US20250313563, Compound 943916], the IC50 in assay [1] was below 0.1 µM; in assay [2], 0.1 to 1 µM.

As for `CCC1(c2cccc(S(=O)(=O)C3CC3)c2)C2=CN=NC2NC2=C1C(=O)CC(C)(C)C2` (configuration not stated) [US20250313563, Compound 909204], the IC50 was below 0.1 µM in assay [1]; < 0.1 µM and 0.1 to 1 µM in assay [2].

Turning to `CC1(C)CC(=O)C2=C(C1)NC1=C(CN=N1)C21CSC1` [US20250313563, Compound 889567], the IC50 in assay [1] was below 0.1 µM; in assay [2], 0.1 to 1 µM.

`CC[C@@]1(c2cccc(-c3ccnc(C)c3)c2)C2=CN=NC2NC2=C1C(=O)NC1(CCC1)C2` (some centres not stated) [US20250313563, Compound 949520]: the IC50 in assay [1] is below 0.1 µM; in assay [2], 0.1 to 1 µM.

Turning to `CN1CCC2(C1)C1=C(N=NC1)NC1=C2C(=O)CC(C)(C)C1` (configuration not stated) [US20250313563, Compound 841867], the IC50 in assay [1] and in assay [2] was above 5 µM throughout.

With `CC[C@]1(c2ccccc2)C2=CN=NC2NC2=C1C(=O)[C@@H](C)C[C@@H]2C` (some centres not stated) [US20250313563, Compound 865202], the IC50 in assay [1] and in assay [2] was above 5 µM each time.

For `CC1(C)CC(=O)C2=C(C1)NC1=C(CN=N1)[C@@]21CCN(S(=O)(=O)c2cccc(F)c2)C1` [US20250313563, Compound 951862], the IC50 in assay [1] and in assay [2] was below 0.1 µM each time.

For the compound `CC[C@]1(c2cccc(-c3ncnn3C)c2)C2=CN=NC2NC2=C1C(=O)CC(C)(C)C2` (some centres not stated) [US20250313563, Compound 945472], the IC50 in assay [1] was below 0.1 µM; in assay [2] it was 0.1 to 1 µM.

`CC[C@@]1(c2cccc(-c3ccnc(C)c3)c2)C2=C(CC(C)(C)NC2=O)NC2N=NC(Cl)=C21` (some centres not stated) [US20250313563, Compound 949422]: the IC50 in assay [1] is < 0.1 µM and 0.1 to 1 µM; in assay [2], < 0.1 µM and 1 to 5 µM.

As for `CC[C@]1(c2cccc(S(=O)(=O)C(C)C)c2)C2=C(CC(C)(C)NC2=O)NC2N=NC(C(F)(F)F)=C21` (some centres not stated) [US20250313563, Compound 948419], the IC50 in assay [1] and in assay [2] was below 0.1 µM each time.

For `CC[C@]1(c2cccc(-c3ccnc(C)c3)c2)C2=CN=NC2NC2=C1C(=O)NC1(CCC1)C2` (some centres not stated) [US20250313563, Compound 949517], the IC50 was 1 to 5 µM in assay [1] and above 5 µM in assay [2].

As for `CCC1(c2cccc(N(C)c3cccc(C)n3)c2)C2=CN=NC2NC2=C1C(=O)CC(C)(C)C2` (configuration not stated) [US20250313563, Compound 913255], the IC50 was below 0.1 µM in assay [1] and 0.1 to 1 µM in assay [2].

Turning to `CC1(C)CC(=O)C2=C(C1)NC1=C(CN=N1)C21CNC1` [US20250313563, Compound 912075], the figures for the IC50 in assay [1] and in assay [2] were 1 to 5 µM and above 5 µM, respectively.

Turning to `CC1(C)CC(=O)C2=C(NC3=C(CN=N3)C23CCN(S(=O)(=O)c2cccc(C(F)(F)F)c2)CC3)[C@H]1F` [US20250313563, Compound 951713], the IC50 in assay [1] is < 0.1 µM and 0.1 to 1 µM; in assay [2], < 0.1 µM and 1 to 5 µM.

Regarding `CC[C@@]1(c2cccc(-c3ccnc(OC)c3)c2)C2=C(CC(C)(C)CC2=O)NC2N=NC(C)=C21` (some centres not stated) [US20250313563, Compound 913016], the IC50 lay within 0.1 to 1 µM in assay [1] and 1 to 5 µM in assay [2].

For `CC[C@@]1(c2ccccc2)C2=CN=NC2NC2=C1C(=O)[C@@H](F)C(C)(C)C2` (some centres not stated) [US20250313563, Compound 826767], the IC50 in assay [1] and in assay [2] was above 5 µM throughout.

As to `CC[C@@H]1C[C@@]2(CCO1)C1=C(N=NC1)NC1=C2C(=O)CC(C)(C)C1` [US20250313563, Compound 907328], the values for the IC50 in assay [1] and in assay [2] were 0.1 to 1 µM and 1 to 5 µM, respectively.

On to `CC[C@@]1(c2ccccc2)C2=CN=NC2NC2=C1C(=O)C[C@]1(CCN(C)C1=O)C2` (some centres not stated) [US20250313563, Compound 949753], for which the results for the IC50 in assay [1] and in assay [2] were 1 to 5 µM and above 5 µM, respectively.

In the case of `CCC1(c2cccc(-c3cnc(C)n3C)c2)C2=CN=NC2NC2=C1C(=O)CC(C)(C)C2` (configuration not stated) [US20250313563, Compound 943531], the IC50 in assay [1] was < 0.1 µM and 0.1 to 1 µM; in assay [2] it was 0.1 to 1 µM and > 5 µM.

In the case of `CC[C@]1(c2cccc(N3CCCC3)c2)C2=C(CC(C)(C)CC2=O)NC2N=NC(C)=C21` (some centres not stated) [US20250313563, Compound 883875], the 50% inhibitory concentration (IC50) in assay [1] was 0.1 to 1 µM; in assay [2], 1 to 5 µM.

With `C[C@@H]1C[C@]2(CCN1S(C)(=O)=O)C1=CN=NC1NC1=C2C(=O)CC(C)(C)C1` (some centres not stated) [US20250313563, Compound 918316], the values for the IC50 in assay [1] and in assay [2] were below 0.1 µM and 0.1 to 1 µM, respectively.

Take `CC1(C)CC(=O)C2=C(C1)NC1=C(CN=N1)C21CCC2(CC1)COC2` [US20250313563, Compound 883977]: the IC50 in assay [1] is below 0.1 µM; in assay [2], 0.1 to 1 µM.

`Cn1nccc1-c1cccc2c1CCC[C@]21C2=CN=NC2NC2=C1C(=O)CC(C)(C)C2` (some centres not stated) [US20250313563, Compound 945552]: the IC50 in assay [1] was 0.1 to 1 µM; in assay [2] it was above 5 µM.

Consider `CC[C@@]1(c2cccc(C(F)(F)F)c2)C2=CN=NC2NC2=C1C(=O)N(C(C)(C)C)CC2` (some centres not stated) [US20250313563, Compound 945634], for which the IC50 in assay [1] was 1 to 5 µM; in assay [2] it was above 5 µM.

Regarding `CC1(C)CC(=O)C2=C(C1)NC1=C(CN=N1)[C@]21CCC[C@@H](C#N)C1` [US20250313563, Compound 946080], the IC50 in assay [1] and in assay [2] was 1 to 5 µM each time.

As for `CC1(C)CC(=O)C2=C(C1)NC1=C(CN=N1)C21COC2(CN(C(=O)C3(C)CC(F)C3)C2)C1` (configuration not stated) [US20250313563, Compound 947271], the concentration for half-maximal inhibition (IC50) is below 0.1 µM in assay [1] and 0.1 to 1 µM in assay [2].

For the compound `CC[C@@]1(c2cccc(-c3ccnc(C)c3)c2)C2=C(CC(C)(C)NC2=O)NC2N=NC(C(F)(F)F)=C21` (some centres not stated) [US20250313563, Compound 948774], the IC50 in assay [1] and in assay [2] was below 0.1 µM each time.

With `CC[C@@]1(c2cccc([C@H](C)c3ncccn3)c2)C2=CN=NC2NC2=C1C(=O)CC(C)(C)C2` (some centres not stated) [US20250313563, Compound 948060], the IC50 in assay [1] is < 0.1 µM and 0.1 to 1 µM; in assay [2] it was < 0.1 µM and 1 to 5 µM.

As to `CC[C@]1(c2cccc(-c3ccnc4ccccc34)c2)C2=CN=NC2NC2=C1C(=O)CC(C)(C)C2` (some centres not stated) [US20250313563, Compound 944034], the half-maximal inhibitory concentration (IC50) in assay [1] and in assay [2] was above 5 µM throughout.

For `CC(=O)N1CCC2(C1)CC1(CO2)C2=C(N=NC2)NC2=C1C(=O)CC(C)(C)C2` (configuration not stated) [US20250313563, Compound 948040], the half-inhibitory concentration (IC50) in assay [1] was below 0.1 µM; in assay [2], 0.1 to 1 µM.

For the compound `CC1(C)CC(=O)C2=C(C1)NC1=C(CN=N1)C21CN(c2ccncn2)C1` [US20250313563, Compound 909209], the IC50 in assay [1] and in assay [2] was 1 to 5 µM in each case.

`CC1(C)CC(=O)C2=C(C1)NC1N=NC(Br)=C1C21CCc2c(F)cccc21` (configuration not stated) [US20250313563, Compound 801358]: the IC50 in assay [1] and in assay [2] was below 0.1 µM throughout.

For `CC[C@]1(c2cccc(Oc3ncccn3)c2)C2=C(CC(C)(C)NC2=O)NC2N=NC(C(F)(F)F)=C21` (some centres not stated) [US20250313563, Compound 951607], the IC50 in assay [1] was below 0.1 µM; in assay [2], < 0.1 µM and 0.1 to 1 µM.

Take `Cn1cc(-c2cccc([C@@]3(C)C4=C(CC(C)(C)CC4=O)NC4=C3C(CC(C)(C)C)N=N4)c2)cn1` (some centres not stated) [US20250313563, Compound 126367]: the IC50 in assay [1] and in assay [2] was above 5 µM throughout.

`CC[C@]1(c2cccc(N3CCCCC3)c2)C2=C(CC(C)(C)NC2=O)NC2N=NC(C(F)(F)F)=C21` (some centres not stated) [US20250313563, Compound 949178]: the IC50 is 0.1 to 1 µM in assay [1] and 1 to 5 µM in assay [2].
